Data set [1] has as its system porcine model of acute posterior uveitis (intravitreal LPS). The data set is described as follows: Porcine model of acute uveitis: intraocular pressure (TonoVet). The class given is in vivo, pigs. Conditions: Day 3, low dose 0.1 mg/kg/day PO, P<0.0065. Here is the method:
(§1) Twenty four hours after the induction of acute uveitis by intraocular lipopolysaccharide (LPS) injection (Day 0) into the vitreous, 50 μL of balanced salt solution (BSS, Group 1) or triamcinolone (CLS-TA) (2 mg, Group 3) was injected into the suprachoroidal space (SCS). In Groups 2 and 4, oral prednisone (1 mg/kg/day, Group 2 or 0.1 mg/kg/day, Group 4) was dosed on Day 0, and repeated every 24 hours until euthanasia on day 3. Eyes were examined every 24 hours, which included measuring inflammation scores (Modified Hackett-McDonald) and intraocular pressure (TOP) until euthanasia 3 days after initiation of treatment. Safety assessments and histopathology were performed on all eyes. Electroretinography and wide-field fundus photography was performed at −24 hours, time 0 (before treatment) and on Day 3. Histopathology was performed on eyes after euthanasia.
Treatment. […]
Intraocular Pressure. Intraocular pressure (TOP) was measured with the pigs awake and hand restrained at −144, −96, −24, 0, 24, 48, and 72 hours (see FIG. 1) using a TonoVet Tonometer (iCare, Finland). […] After the six measurements, the mean IOP was shown on the display providing the IOP that was recorded.
Data and Statistical Analysis. […] Results and probabilities were calculated using computerized statistical software (JMP 10, SAS Inc. Cary, N.C.).

Data set [2] shares this test system. Nature of the data set: Porcine model of acute uveitis: ocular histopathology. The class given is in vivo, pigs.
The test system is the same in data set [3]. The data set is described as follows: Porcine model of acute uveitis: wide-field ocular fundus digital photography. Format: in vivo, pigs. Conditions: 72 hours. How it is done: as §1, with “-24” for “−24”, “euthanasia. Wide-field Ocular Fundus Digital Photography. With the pigs anesthetized at times -24, 0 and 72 hours, and pupils dilated with tropicamide 1%, the ocular fundus was photographed with standardized illumination and focus using a wide-field digital imaging system ([…], Clarity Medical Systems, Pleasanton, Calif.).” for “euthanasia.”

The test system is the same in data set [4]. Nature of the data set: Porcine model of acute uveitis: modified Hackett-McDonald ocular inflammation score. The class given is in vivo, pigs.
A further data set deals with patients. Conditions: in vivo; cited from earlier work.
Data set [5] deals with patients with non-infectious uveitis. The data set is described as follows: Phase 1/2 open-label safety and tolerability study of TA administered to the suprachoroidal space. Format: in vivo, human. How it is done:
A clinical trial was designed to evaluate the safety and tolerability of a single injection of TA (triamcinolone acetonide administered as TRIESCENCE™) into the SCS in patients diagnosed with non-infectious uveitis.
Each mL of the sterile, aqueous suspension of TRIESENCE™ provides […] of triamcinolone acetonide, with sodium chloride for isotonicity, 0.5% (w/v) carboxymethylcellulose sodium and 0.015% polysorbate 80. It also contains potassium chloride, calcium chloride (dihydrate), magnesium chloride (hexahydrate), sodium acetate (trihydrate), sodium citrate (dihydrate) and water for injection. Sodium hydroxide and hydrochloric acid may be present to adjust pH to a target value 6-7.5.
The primary purpose of this trial was to evaluate the overall safety and tolerability of treating uveitis patients (non-infectious uveitis—intermediate, posterior or pan-uveitis) by administering a triamcinolone into the SCS via a single suprachoroidal injection. Eligibility criteria include adult patients with non-infectious uveitis experiencing either macular edema or vitreous haze, a common complication of uveitis. This was in order to determine whether SCS administration of TA could improve patient vision through reducing the effects of either condition. For inclusion in the trial, patients must have IOP (intra-ocular pressure) of no greater than 22 mmHg
Each patient enrolled received a single SCS microinjection of 4.0 mg (100 μL) of triamcinolone acetonide of day 1. Patients returned for a follow-up examination on the day after the injection and then for eight additional evaluations at weeks 1, 2, 4, 8, 12, 16, 20 and 26 following the treatment. Patients may receive other treatment at any time during the trial with any accepted therapy based on their physician's best medical judgment, if their condition deteriorates or if the physician otherwise determines it to be advisable. In the event a patient received other treatment, the patient was followed for the duration of the trial for safety purposes, but efficacy measures were no longer considered thereafter.
Patients received the single SCS injection 4 mm posterior to limbus and received an ultrasound assessment of scleral thickness immediately after injection.
Endpoints. The main safety endpoint was changes from baseline in intraocular pressure (TOP). Also assessed was an efficacy endpoint relating to changes in best-corrected visual acuity, or BCVA, as well as changes in excess retinal thickness.

“Also recorded” adds a separate entry of the source.

`C[C@]12C=CC(=O)C=C1CC[C@@H]1[C@@H]2C(=O)C[C@@]2(C)[C@H]1CC[C@]2(O)C(=O)CO` [prednisone]: the “mean IOP compared with the other groups” value in data set [1] is “significantly lower than Groups 1, 2, and 3; also recorded: significantly lower IOP than all other groups”. Also, in data set [2] (high dose 1 mg/kg/day PO, P<0.013), the “mean histologic score of the posterior segment compared with low dose oral prednisone (Group 4)” value was “lower than the mean score of eyes treated with low dose oral prednisone”. Moreover, the “mean histologic score of the anterior segment compared with saline (Group 1)” value in data set [2] (oral 0.1 mg/kg/day (Group 4)) and in data set [2] (oral 1 mg/kg/day (Group 2)) was “not significantly different than Group 1” throughout. For the same molecule, the wide-field fundus images result was “near pre-treatment appearance” in data set [3] (high dose 1 mg/kg/day PO) and “only slightly improved over vehicle treated eyes” in data set [3] (low dose 0.1 mg/kg/day PO). Also, the “mean cumulative inflammation score compared with Group 1 (BSS)” value in data set [4] (Day 3 (72 hours), high dose 1 mg/kg/day PO, P<0.034) is recorded as “significantly lower”. The “mean cumulative inflammation score compared with saline treated eyes” value in data set [4] (any treatment time, low dose 0.1 mg/kg/day PO) was “not significantly different than saline treated eyes”. The “reduction of ocular inflammation relative to low dose prednisone” value in data set [4] (high dose 1 mg/kg/day PO) is “more effective than low dose prednisone”. For the same molecule, the “time to reduction of inflammation” value in data set [4] (high dose 1 mg/kg/day PO) was “three days”.
Consider `CC1(C)O[C@@H]2C[C@H]3[C@@H]4CCC5=CC(=O)C=C[C@]5(C)[C@@]4(F)[C@@H](O)C[C@]3(C)[C@]2(C(=O)CO)O1` [TA, triamcinolone acetonide], for which the “patients with cataracts and increases in IOP levels” value with patients is given as 20-60%. Besides, the “patients with meaningful improvements in BCVA” value in data set [5] (26 weeks after single SCS injection of TA on Day 1) is “Four of the eight patients”. Moreover, the “gain in BCVA” value in data set [5] (26 weeks after single SCS injection, four of the eight patients) is “about 3 lines”. The “decrease in retinal thickness (OCT), SCS injection compared to sub-tenon injection” value in data set [5] (one patient, bilateral uveitis, 4 mg TA SCS in one eye, 20 mg TA sub-tenon in the other eye) is listed as “greater decrease in retinal thickness”. In addition, the “OCT appearance of eye treated with TA via suprachoroidal injection vs Ozurdex treated eye” value in data set [5] (one patient, bilateral uveitis, four to six weeks after treatment) is “looks better than the intravitreally Ozurdex treated eye”. In addition, the “average reduction in CME” value in data set [5] (seven patients, single TA injection into the SCS) is “about 20%”. Besides, the deaths result in data set [5] (single SCS injection 4.0 mg (100 μL) TA, eight patients) is on record as “No deaths”. The “mean reduction in macular edema (retinal thickness)” value in data set [5] (week 26, single TA injection into the SCS, seven patients with macular edema) is on record as “over 100 microns”.

(Values after patent US20180042765A1, “METHODS AND DEVICES FOR TREATING POSTERIOR OCULAR DISORDERS” (CLEARSIDE BIOMEDICAL, INC., priority 2014, published 2018).)
